Laboratory results taken from the supplement of paper PMC10307832.

Experiments:
Assay in all cases: relative viability (nuclei count vs DMSO), 5 days (fraction); higher = more cells survive
Ruxolitinib + Pemetrexed = compound: N#CC[C@H](C1CCCC1)n1cc(-c2ncnc3[nH]ccc23)cn1 [Ruxolitinib] + Nc1nc2[nH]cc(CCc3ccc(C(=O)N[C@@H](CCC(=O)O)C(=O)O)cc3)c2c(=O)[nH]1 [Pemetrexed] (partner 0.2 µM)
Method in brief: (§1)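 The day after seeding in 1536-well plates, lung cancer cell lines were treated by pin tool with a single drug, or with a fixed anchor-drug dose together with five library-drug doses (not always all listed) in √10 steps. After 5 days, a combined fix-and-stain solution (final 0.05% Triton X-100, 1% formaldehyde, 1 ug/ml Hoechst) was added. Nuclei counted on 4× images gave relative viability as treated counts over vehicle counts, reported as the median of duplicate plates.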

Vismodegib + Pictilisib = compound: CS(=O)(=O)c1ccc(C(=O)Nc2ccc(Cl)c(-c3ccccn3)c2)c(Cl)c1 [Vismodegib] + CS(=O)(=O)N1CCN(Cc2cc3nc(-c4cccc5[nH]ncc45)nc(N4CCOCC4)c3s2)CC1 [Pictilisib] (partner 1 µM)
Method in brief: as §1

[1] = compound: N#CC[C@H](C1CCCC1)n1cc(-c2ncnc3[nH]ccc23)cn1 [Ruxolitinib] + CC(=O)c1c(C)c2cnc(Nc3ccc(N4CCNCC4)cn3)nc2n(C2CCCC2)c1=O [Palbociclib] (partner 0.5 µM)
Method in brief: as §1

Vismodegib + Linsitinib = compound: CS(=O)(=O)c1ccc(C(=O)Nc2ccc(Cl)c(-c3ccccn3)c2)c(Cl)c1 [Vismodegib] + C[C@]1(O)C[C@@H](c2nc(-c3ccc4ccc(-c5ccccc5)nc4c3)c3c(N)nccn32)C1 [Linsitinib] (partner 1 µM)
Method in brief: as §1

| Cell Line | relative viability (Ruxolitinib + Pemetrexed; first compound 0.08 µM) | relative viability (Ruxolitinib + Pemetrexed; first compound 0.253 µM) | relative viability (Ruxolitinib + Pemetrexed; first compound 0.8 µM) | relative viability (Ruxolitinib + Pemetrexed; first compound 2.53 µM) | relative viability (Ruxolitinib + Pemetrexed; first compound 8 µM) | relative viability (Vismodegib + Pictilisib; first compound 0.08 µM) | relative viability (Vismodegib + Pictilisib; first compound 0.253 µM) | relative viability (Vismodegib + Pictilisib; first compound 0.8 µM) | relative viability (Vismodegib + Pictilisib; first compound 2.53 µM) | relative viability (Vismodegib + Pictilisib; first compound 8 µM) | relative viability ([1]; first compound 0.08 µM) | relative viability ([1]; first compound 0.253 µM) | relative viability ([1]; first compound 0.8 µM) | relative viability ([1]; first compound 2.53 µM) | relative viability ([1]; first compound 8 µM) | relative viability (Vismodegib + Linsitinib; first compound 0.08 µM) | relative viability (Vismodegib + Linsitinib; first compound 0.253 µM) | relative viability (Vismodegib + Linsitinib; first compound 0.8 µM) | relative viability (Vismodegib + Linsitinib; first compound 2.53 µM) | relative viability (Vismodegib + Linsitinib; first compound 8 µM) |
| --- | --- | --- | --- | --- | --- | --- | --- | --- | --- | --- | --- | --- | --- | --- | --- | --- | --- | --- | --- | --- |
| ChaGo-K-1 | 0.255 | 0.263 | 0.26 | 0.256 | 0.246 | 0.784 | 0.851 | 0.623 | 0.666 | 0.709 | 0.909 | 0.924 | 0.906 | 0.8 | 0.789 |  |  |  |  |  |
| HCC-44 | 0.632 | 0.694 | 0.646 | 0.571 | 0.641 | 0.611 | 0.657 | 0.546 | 0.474 | 0.668 | 0.995 | 1.03 | 0.98 | 0.942 | 0.947 | 0.668 | 0.581 | 0.66 | 0.715 | 0.71 |
| NCI-H441 | 0.259 | 0.252 | 0.273 | 0.231 | 0.261 | 0.505 | 0.444 | 0.536 | 0.391 | 0.502 | 0.218 | 0.206 | 0.302 | 0.241 | 0.309 | 0.419 | 0.562 | 0.48 | 0.508 | 0.653 |
| NCI-H1299 |  |  |  |  |  | 0.761 | 0.815 | 0.72 | 0.787 | 0.96 |  |  |  |  |  | 0.979 | 0.952 | 0.994 | 0.929 | 0.991 |
| LU99A | 0.171 | 0.179 | 0.178 | 0.186 | 0.195 | 0.319 | 0.39 | 0.256 | 0.313 | 0.324 | 0.443 | 0.387 | 0.411 | 0.369 | 0.332 | 0.521 | 0.507 | 0.508 | 0.464 | 0.621 |
| NCI-H520 | 0.74 | 0.714 | 0.748 | 0.466 | 0.413 | 0.332 | 0.254 | 0.271 | 0.274 | 0.309 | 0.243 | 0.218 | 0.251 | 0.204 | 0.258 | 0.916 | 0.928 | 0.966 | 0.974 | 1.16 |
| EPLC-272H | 0.357 | 0.372 | 0.377 | 0.313 | 0.218 | 0.319 | 0.382 | 0.308 | 0.317 | 0.293 | 0.285 | 0.331 | 0.38 | 0.365 | 0.412 | 1.24 | 1.18 | 0.986 | 1.04 | 1.1 |
| PC-14 |  | 0.117 | 0.122 | 0.139 | 0.12 | 0.492 | 0.576 | 0.792 | 0.541 | 0.821 |  | 0.546 | 0.595 | 0.46 | 0.304 | 0.897 | 0.911 | 0.982 | 0.899 | 0.998 |
| LCLC-103H | 0.454 | 0.474 | 0.45 | 0.46 | 0.455 | 0.606 | 0.533 | 0.574 | 0.633 | 0.646 | 0.495 | 0.467 | 0.468 | 0.426 | 0.394 | 0.938 | 1.05 | 0.988 | 1.05 | 1.04 |
| COR-L 105 |  | 1 | 0.926 | 0.874 | 0.919 | 0.383 | 0.371 | 0.445 | 0.401 | 0.453 |  | 0.386 | 0.387 | 0.392 | 0.365 | 0.781 | 0.978 | 0.965 | 1.01 | 0.849 |
| NCI-H2342 | 0.594 | 0.767 | 0.812 | 0.752 | 0.733 |  |  |  |  |  | 0.53 | 0.496 | 0.49 | 0.543 | 0.541 |  |  |  |  |  |
| SW 900 | 0.467 | 0.493 | 0.485 | 0.466 | 0.532 |  |  |  |  |  | 0.477 | 0.589 | 0.625 | 0.624 | 0.532 |  |  |  |  |  |
| LOU-NH91 | 0.376 | 0.338 | 0.378 | 0.354 | 0.353 | 0.556 | 0.515 | 0.516 | 0.482 | 0.532 | 0.61 | 0.526 | 0.52 | 0.532 | 0.53 | 0.926 | 0.972 | 0.916 | 0.951 | 0.961 |
| HCC-15 | 0.223 | 0.227 | 0.212 | 0.194 | 0.203 | 0.754 | 0.758 | 0.711 | 0.748 | 0.597 | 0.708 | 0.718 | 0.759 | 0.663 | 0.635 | 0.896 | 0.876 | 0.834 | 1.01 | 0.897 |
| A-427 | 1 | 0.927 | 0.967 | 1.04 | 0.893 | 0.757 | 0.701 | 0.635 | 0.694 | 0.634 | 0.557 | 0.516 | 0.556 | 0.499 | 0.464 | 1.12 | 1.09 | 1.11 | 1.11 | 1.12 |
| SW 1573 | 0.878 | 0.855 | 0.957 | 0.768 | 0.867 | 0.417 | 0.509 | 0.59 | 0.502 | 0.51 | 0.436 | 0.382 | 0.411 | 0.546 | 0.299 | 0.823 | 0.728 | 0.789 | 0.64 | 0.821 |
| NCI-H2087 | 0.685 |  | 0.726 | 0.703 | 0.652 | 0.673 | 0.702 | 0.843 | 0.874 | 0.732 | 0.26 |  | 0.271 | 0.18 | 0.239 | 1 | 0.916 | 0.97 | 0.934 | 0.896 |
| LK-2 | 0.291 | 0.276 | 0.308 | 0.234 | 0.29 | 0.648 | 0.619 | 0.515 | 0.551 | 0.602 | 0.863 | 0.696 | 0.787 | 0.701 | 0.686 | 0.427 | 0.49 | 0.539 | 0.46 | 0.378 |
